Consider 16 compounds from patent US9708266B2, “Cyclohexyl pyridine derivative” (priority 2014, dated 2017).

Holding throughout (assay type): in vivo
Data set [1] deals with cisplatin-induced acute and delayed emetic response. The data set is described as follows: Effect on cisplatin-induced acute and delayed emetic response. To be noted: male ferret, 0.01 or 0.1 mg/kg iv, cisplatin 5 mg/kg ip. The procedure: The vertical axes show the number of retching and vomiting (Retches+Vomits) (the mean+standard error of 3 examples of control group, the mean+standard error of 3 examples of the group intravenously administered with 0.01 mg/kg, and the mean+standard error of 3 examples of the group intravenously administered with 0.1 mg/kg).
Effect on Cisplatin-Induced Acute and Delayed Emetic Response
The test compound solution was prepared by dissolving the test compound in a vehicle (a mixture of 50% N,N-dimethylacetamide (Wako Pure Chemical Industries), 30% propylene glycol (Wako Pure Chemical Industries), 4% 2-hydroxypropyl-β-cyclodextrin (Wako Pure Chemical Industries) and 16% distilled water). The vehicle only was administered to the control group.
Under anesthesia with isoflurane, 0.01 mg/kg or 0.1 mg/kg of the test compound was intravenously administered to a male ferret (Marshall BioResources Japan) from the jugular vein. Cisplatin in saline, which was heated to 40-50° C., was intraperitoneally administered at 5 mg/kg one hour after the drug administration.

A short description of data set [2]: Ferret pharmacokinetic test. To be noted: male ferret, plasma. The procedure: Ferret Pharmacokinetic Test
The test compound solution for intravenous administration was prepared by dissolving the test compound in a vehicle (a mixture of 50% N,N-dimethylacetamide (Wako Pure Chemical Industries), 30% propylene glycol (Wako Pure Chemical Industries), 4% 2-hydroxypropyl-β-cyclodextrin (Wako Pure Chemical Industries) and 16% distilled water). As an oral administration solution, the suspension (0.5% methylcelluose) was used.
Under anesthesia with isoflurane, 0.1 mg/kg of the test compound was intravenously administered to a male ferret (Marshall BioResources Japan) from the femoral vein. In the case of oral administration, 1 mg/kg of the test compound was orally administered to an awake animal. After the administration of the test compound, blood samples were taken sequentially from the brachial cephalic vein up to 7 days after the administration. Through a quantitative analysis using liquid chromatography-mass spectrometry (LC/MS), the concentrations of the test compound in the plasma were measured.
In the tables, Ex. No. means the Example number. t1/2, CLtot and Vss are the half-life, the total body clearance and the steady-state volume of distribution, based on the plasma concentrations in the case of intravenous administration, respectively. Cmax, AUC and BA are the maximum plasma test compound concentration, the area under the plasma test compound concentration-time curve within 7 days after the administration and the bioavailability, in the case of oral administration, respectively.

For the next data set, the target named is NK1 receptor (Meriones unguiculatus (Mongolian jird) (Gerbillus unguiculatus), UniProt Q5DUB1). Briefly: Effect on GR73632-induced foot-tapping. To be noted: male gerbil, 0.1 mg/kg iv, GR73632 icv after four hours. The procedure:
The test compound solution was prepared by dissolving the test compound in a vehicle (a mixture of 50% N,N-dimethylacetamide (Wako Pure Chemical Industries), 30% propylene glycol (Wako Pure Chemical Industries), 4% 2-hydroxypropyl-[…] (Wako Pure Chemical Industries) and 16% distilled water).
A male gerbil (Japan SLC) was anesthetized with isoflurane, and 0.1 mg/kg of a test compound was administered from the jugular vein. After four hours, GR73632 (5 pmol/5 μl saline), which is an NK1 receptor agonist, was administered into the cerebral ventricle at the part 1 mm lateral to and 4.5 mm below the bregma in the head, under anesthesia with isoflurane. After the administration, the gerbil was moved to an observation cage, and the foot-tapping period during 30 minutes after the recovery of the righting reflex was measured. The foot-tapping inhibition rate (%) of each test compound was calculated by the following equation. Foot-tapping inhibition rate (%)={1−(Foot-tapping period when test compound was administered)/(Foot-tapping period when solvent was administered)}×100 (2) Measurement of Drug Concentrations

One may read the clearance as the volume of plasma or blood freed of the substance per unit of time. One may read the bioavailability as the share of a dose that reaches the circulation, judged against a reference dose that is usually intravenous.

NK1 receptor, sequence (Q5DUB1 whole entry): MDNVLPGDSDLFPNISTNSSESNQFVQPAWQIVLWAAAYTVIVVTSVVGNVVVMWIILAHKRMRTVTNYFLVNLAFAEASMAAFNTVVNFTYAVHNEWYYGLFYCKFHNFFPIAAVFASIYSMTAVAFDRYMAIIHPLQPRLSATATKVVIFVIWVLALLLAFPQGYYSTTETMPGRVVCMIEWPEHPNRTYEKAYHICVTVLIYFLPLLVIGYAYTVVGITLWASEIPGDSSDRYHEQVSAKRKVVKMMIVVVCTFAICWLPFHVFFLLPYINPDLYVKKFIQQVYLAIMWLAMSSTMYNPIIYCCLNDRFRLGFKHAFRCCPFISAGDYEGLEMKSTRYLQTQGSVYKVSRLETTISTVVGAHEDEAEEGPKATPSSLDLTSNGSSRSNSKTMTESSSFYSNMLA

For `Cc1cc(F)ccc1-c1cc([C@H]2CC[C@H](CC(=O)O)CC2)ncc1N(C)C(=O)C(C)(C)c1cc(C(F)(F)F)cc(C(F)(F)F)c1` [Example 13, trans-{4-[5-{[2-(3,5-Bistrifluoromethylphenyl)-2-methylpropionyl]methylamino}-4-(4-fluoro-2-methylphenyl)pyridin-2-yl]cyclohexyl}acetic acid], in data set [1] (24 hours to 72 hours), the “number of retching and vomiting, delayed phase” value is “inhibition of the number of retching and vomiting was observed”. For the same compound, the “number of retching and vomiting, acute phase” value in data set [1] (up to 24 hours) is “inhibition of the number of retching and vomiting was observed”. The clearance in data set [2] (0.1 mg/kg intravenous, read-out: CL tot (total body clearance)) worked out at 0.13 mL/min/kg. Also, in data set [2] (0.1 mg/kg intravenous, read-out: Vss (steady-state volume of distribution)), the Vd amounted to 0.401 L/kg. Further, the half-life in data set [2] (0.1 mg/kg intravenous, read-out: t1/2 (half-life)) was 2490 min. Further, the AUC in data set [2] (1 mg/kg oral, read-out: AUC (area under the plasma concentration-time curve within 7 days) (converted)) was 88200 ng·h/mL. Also, the bioavailability in data set [2] (1 mg/kg oral, read-out: BA (bioavailability)) was 66%. In addition, in data set [2] (1 mg/kg oral, read-out: Cmax (maximum plasma test compound concentration)), the Cmax came to 1260 ng/mL. In addition, the “Inhibition (foot-tapping inhibition rate)” value (shortened to “Inhibition”) at NK1 receptor worked out at 100%. With `Cc1cc(F)ccc1-c1cc(C2CCCC(CC(=O)O)C2)ncc1N(C)C(=O)C(C)(C)c1cc(C(F)(F)F)cc(C(F)(F)F)c1` (stereo not drawn) [Example 3, {3-[5-{[2-(3,5-Bistrifluoromethylphenyl)-2-methylpropionyl]methylamino}-4-(4-fluoro-2-methylphenyl)pyridin-2-yl]cyclohexyl}acetic acid], the “Inhibition” value on NK1 receptor stood at 100%.

As for `Cc1cc(F)ccc1-c1cc(C2CCC(CC(=O)O)CC2)nc(C#N)c1N(C)C(=O)C(C)(C)c1cc(C(F)(F)F)cc(C(F)(F)F)c1` (stereo not drawn) [Example 8, {4-[5-{[2-(3,5-Bistrifluoromethylphenyl)-2-methylpropionyl]methylamino}-6-cyano-4-(4-fluoro-2-methylphenyl)pyridin-2-yl]cyclohexyl}acetic acid], the “Inhibition” value on NK1 receptor was found to be 100%. Still for that read-out and setting: to `Cc1cc(F)ccc1-c1cc(C2CCC(C(=O)O)CC2)ncc1N(C)C(=O)C(C)(C)c1cc(C(F)(F)F)cc(C(F)(F)F)c1` (stereo not drawn) [Example 1, 4-[5-{[2-(3,5-Bistrifluoromethylphenyl)-2-methylpropionyl]methylamino}-4-(4-fluoro-2-methylphenyl)pyridin-2-yl]cyclohexanecarboxylic acid] belongs 98%; to `Cc1cc(F)ccc1-c1cc([C@H]2CC[C@@H](CC(=O)O)CC2)nc(C#N)c1N(C)C(=O)C(C)(C)c1cc(C(F)(F)F)cc(C(F)(F)F)c1` [Example 21, cis-{4-[5-{[2-(3,5-bistrifluoromethylphenyl)-2-methylpropionyl]methylamino}-6-cyano-4-(4-fluoro-2-methylphenyl)pyridin-2-yl]cyclohexyl}acetic acid], 100%; to `Cc1cc(F)ccc1-c1cc(C2CCC(C)(CC(=O)O)CC2)ncc1N(C)C(=O)C(C)(C)c1cc(C(F)(F)F)cc(C(F)(F)F)c1` (stereo not drawn) [Example 15, {4-[5-{[2-(3,5-Bistrifluoromethylphenyl)-2-methylpropionyl]methylamino}-4-(4-fluoro-2-methylphenyl)pyridin-2-yl]-1-methylcyclohexyl}acetic acid], 100%. The same measure, in the same setting: to `Cc1cc(F)ccc1-c1cc(C2CCC(C(C)C(=O)O)CC2)ncc1N(C)C(=O)C(C)(C)c1cc(C(F)(F)F)cc(C(F)(F)F)c1` (stereo not drawn) [Example 10, 2-{4-[5-{[2-(3,5-Bistrifluoromethylphenyl)-2-methylpropionyl]methylamino}-4-(4-fluoro-2-methylphenyl)pyridin-2-yl]cyclohexyl}propionic acid] belongs 97%; to `Cc1cc(F)ccc1-c1cc(C2CCC(CC(=O)O)CC2)nc(CO)c1N(C)C(=O)C(C)(C)c1cc(C(F)(F)F)cc(C(F)(F)F)c1` (stereo not drawn) [Example 19, {4-[5-{[2-(3,5-Bistrifluoromethylphenyl)-2-methylpropionyl]methylamino}-4-(4-fluoro-2-methylphenyl)-6-hydroxymethylpyridin-2-yl]cyclohexyl}acetic acid], 95%; to `Cc1cc(F)ccc1-c1cc([C@H]2CC[C@H](CC(=O)O)CC2)nc(C#N)c1N(C)C(=O)C(C)(C)c1cc(C(F)(F)F)cc(C(F)(F)F)c1` [Example 20, trans-{4-[5-{[2-(3,5-Bistrifluoromethylphenyl)-2-methylpropionyl]methylamino}-6-cyano-4-(4-fluoro-2-methylphenyl)pyridin-2-yl]cyclohexyl}acetic acid], 100%. For the compound `Cc1cc(F)ccc1-c1cc(C2(C)CCCC(CC(=O)O)C2)ncc1N(C)C(=O)C(C)(C)c1cc(C(F)(F)F)cc(C(F)(F)F)c1` (stereo not drawn) [Example 4, {3-[5-{[2-(3,5-Bistrifluoromethylphenyl)-2-methylpropionyl]methylamino}-4-(4-fluoro-2-methylphenyl)pyridin-2-yl]-3-methylcyclohexyl}acetic acid], on NK1 receptor, the “Inhibition” value amounted to 77%. Still for that read-out and setting: to `Cc1cc(F)ccc1-c1cc(C2CCC(CC(=O)O)CC2)nc(C)c1N(C)C(=O)C(C)(C)c1cc(C(F)(F)F)cc(C(F)(F)F)c1` (stereo not drawn) [Example 18, {4-[5-{[2-(3,5-Bistrifluoromethylphenyl)-2-methylpropionyl]methylamino}-4-(4-fluoro-2-methylphenyl)-6-methylpyridin-2-yl]cyclohexyl}acetic acid] belongs 100%. The same measure, in the same setting: to `Cc1cc(F)ccc1-c1cc([C@H]2CC[C@@H](CC(=O)O)CC2)ncc1N(C)C(=O)C(C)(C)c1cc(C(F)(F)F)cc(C(F)(F)F)c1` [Example 14, cis-{4-[5-{[2-(3,5-bistrifluoromethylphenyl)-2-methylpropionyl]methylamino}-4-(4-fluoro-2-methylphenyl)pyridin-2-yl]cyclohexyl}acetic acid] belongs 99%; to `Cc1cc(F)ccc1-c1cc([C@H]2CC[C@H](C(C)(C)C(=O)O)CC2)ncc1N(C)C(=O)C(C)(C)c1cc(C(F)(F)F)cc(C(F)(F)F)c1` [Example 11, trans-2-{4-[5-{[2-(3,5-Bistrifluoromethylphenyl)-2-methylpropionyl]methylamino}-4-(4-fluoro-2-methylphenyl)pyridin-2-yl]cyclohexyl}-2-methylpropionic acid], 95%. For `Cc1ccccc1-c1cc(C2CCC(CC(=O)O)CC2)ncc1N(C)C(=O)C(C)(C)c1cc(C(F)(F)F)cc(C(F)(F)F)c1` (stereo not drawn) [Example 9, {4-[5-{[2-(3,5-Bistrifluoromethylphenyl)-2-methylpropionyl]methylamino}-4-ortho-tolylpyridin-2-yl]-cyclohexyl}acetic acid], the “Inhibition” value at NK1 receptor is 75%. With `Cc1ccccc1-c1cc(C2CCC(CC(=O)O)CC2)nc(C#N)c1N(C)C(=O)C(C)(C)c1cc(C(F)(F)F)cc(C(F)(F)F)c1` (stereo not drawn) [Example 16, [4-(5-{[2-(3,5-Bistrifluoromethylphenyl)-2-methylpropionyl]methylamino}-6-cyano-4-ortho-tolylpyridin-2-yl)cyclohexyl]acetic acid], on NK1 receptor, the “Inhibition” value came out at 93%. The same measure, in the same setting: to `Cc1cc(F)ccc1-c1cc(C2CCC3(CC2)CC3C(=O)O)ncc1N(C)C(=O)C(C)(C)c1cc(C(F)(F)F)cc(C(F)(F)F)c1` (stereo not drawn) [Example 7, 6-[5-{[2-(3,5-Bistrifluoromethylphenyl)-2-methylpropionyl]methylamino}-4-(4-fluoro-2-methylphenyl)pyridin-2-yl]spiro[2.5]octane-1-carboxylic acid] belongs 90%.
